Values after ≈ are worked out from the molar mass of the structure shown.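 Interpolation was linear, between the two tested concentrations surrounding the appropriate level; five concentrations were tested over 48 hours in 96-well plates. At the GI50, growth is halved. TGI marks complete inhibition of growth.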

Test in all cases: NCI tumour cell line growth inhibition, 48 h
For test [1], the system named is SR leukemia.
Test [2] concerns ACHN renal.
The subject of test [3] is EKVX NSCLC.
Test [4] concerns SF-539 CNS.
Test [5] concerns OVCAR-4 ovarian.
Test [6] has as its system KM20L2 colon.
Test [7] has as its system M19-MEL melanoma.
In test [8] the test system is HOP-18 NSCLC.
Test [9] deals with DLD-1 colon.
Test [10] deals with DMS 273 small cell lung.
Test [11] deals with SN12K1 renal.
Test [12] concerns A498 renal.
Test [13] concerns P388/ADR leukemia.
In test [14] the test system is MDA-N.

Regarding `CC(=O)c1c(C)nc(SSc2nc(C)c(C(C)=O)c(-c3ccc(Cl)cc3)c2C#N)c(C#N)c1-c1ccc(Cl)cc1`, the GI50 in [1] is above 150 µg/mL; in test [2], 76.9 µg/mL (≈ 127 µM); in test [3], 145 µg/mL; in test [4], 47.7 µg/mL; in [5], 62.6 µg/mL (≈ 104 µM). For the same compound, the TGI in [1], in test [2], in test [3], in test [4] and in [5] was above 150 µg/mL in each case.

Consider `O=C(N/N=C/c1cc(Cl)cc(Cl)c1[O-])c1ccccc1O.O=C(N/N=C/c1cc(Cl)cc(Cl)c1[O-])c1ccccc1O.[Co+2]`, for which the GI50 in test [6] is 2.14 µM; in test [3], 1.02 µM; in [4], 0.486 µM. Further, the TGI in [6] was 7.43 µM; in test [1], 0.532 µM; in test [2], 10.7 µM; in [3], 14.8 µM; in [4], 5.68 µM; in test [5], 7.07 µM.

`CC(=O)Nc1ccc(C(=O)NN2C(=O)C(Cl)/C2=C/c2ccco2)cc1` (configuration not stated): the TGI in [7], in test [8], in test [1], in [2], in test [4] and in test [9] was above 100 µM each time.

As to `CC(=O)OCC1OC(n2cc(F)c(=O)[nH]c2=O)C(NC(=O)OCc2ccccc2)C(OC(C)=O)C1OC(C)=O` (configuration not stated), the TGI in test [6], in test [7], in test [10], in [8], in [11] and in test [12] was above 100 µM throughout. For the same compound, the TGI in [13], in [3], in test [4], in [9] and in test [5] was above 100 µM each time.

For `CCP(=O)(CC)C(Cl)Cl`, the TGI in [1], in [2], in [14] and in test [5] was above 100 µM throughout.

With `Nc1[nH]nc(Nc2ccc(Cl)cc2)c1P(=O)(c1ccccc1)c1ccccc1`, the TGI was above 100 µM in test [12]; above 100 µM in test [1]; above 100 µM in test [2]; above 100 µM in test [3]; 42.6 µM in [4]; 47.4 µM in [14]. In test [5], the TGI stood at 80.8 µM.

Source of the values: PubChem BioAssay (NCI).
